Laboratory results taken from PubChem BioAssay (NCI).
Several values for one entry are separate records, joined by “and”; a condition that tells them apart may be missing. Equal entries are not always repeated.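 Values below derive from 48-hour exposures of cells grown in 96-well plates, with endpoints linearly interpolated between the two concentrations bracketing the appropriate inhibition level. Abbreviation: GI50, concentration required for 50% inhibition of growth. TGI is the concentration that stops growth completely.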 *1 amine or outer side, *2 acyl side, *3 side chain or, on linkers, in order; H or OH if unused. Where a SMILES comes first, the peptide text is derived from it. [ ]: non-standard residue; d: D form. The star is where a group is joined. ξ: configuration not given here. X15 = CCN(CC)c1ccc2cc(N*)c(=O)oc2c1; dIva = CC[C@@](C)(N)C(=O)O; X14 = O=C(OCCN[*:1])[*:2]; Aib = CC(C)(N)C(=O)O; ξP = O=C(O)C1CCCN1; βAla = NCCC(=O)O

How the values were obtained:
Assay in all cases: NCI anticancer screen, dose series, 48 h
[1] = system: SN12C renal
[2] = system: SF-295 CNS
[3] = system: HOP-62 NSCLC
[4] = system: HL-60(TB) leukemia
[5] = system: SK-MEL-2 melanoma
[6] = system: A498 renal
[7] = system: OVCAR-8 ovarian
[8] = system: SNB-75 CNS
[9] = system: MALME-3M melanoma
[10] = system: M14 melanoma

Row | SMILES | GI50 [1] | TGI [1] [µM] | GI50 [2] | TGI [2] [µM] | GI50 [3] [µM] | TGI [3] [µM] | GI50 [4] [µM] | TGI [4] [µM] | GI50 [5] [µM] | TGI [5] [µM] | GI50 [6] [µM] | TGI [6] [µM] | GI50 [7] | TGI [7] [µM] | GI50 [8] | TGI [8] [µM] | GI50 [9] [µM] | TGI [9] | GI50 [10] | TGI [10] [µM]
1 | CCN(CC)c1ccc2cc(NC(=O)OCCNC(=O)CCNC(=O)[C@H](CC(C)C)NC(=O)C(C)(C)NC(=O)C(C)(C)NC(=O)[C@H](CC(C)C)NC(=O)CCNC(=O)C(C)(C)NC(=O)[C@H](CC(C)C)NC(=O)CCNC(=O)[C@@](C)(CC)NC(=O)[C@H](C)NC(=O)CCNC(=O)C(C)(C)NC(=O)[C@H](C)NC(=O)[C@@H]3CCCN3C(=O)[C@@](C)(CC)NC(=O)[C@H](Cc3ccccc3)NC(=O)C3CCCN3C(=O)C(C)(C)NC(=O)C3CCCN3C(=O)C(C)(C)NC(C)=O)c(=O)oc2c1 (stereo partly specified) (Ac-[Aib][ξP][Aib][ξP]F[dIva]PA[Aib][βAla]A[dIva][βAla]L[Aib][βAla]L[Aib][Aib]L[βAla][X14]-X15) | 0.0034 µM | 0.0143 | 0.00316 µM | 0.0103 | 0.00385 | 0.021 | 0.00316 | 0.011 | 0.00266 | 0.00665 | 0.00291 | 0.0265 | 0.005 µM | 0.0939 | 0.00254 µM | 0.0242 | 0.0021 | 0.00597 µM | 0.00838 µM | 0.0358
2 | Cn1ccnc1C(=O)/C=C/c1ccc(CC(=O)Nc2ccc(C(F)(F)F)cc2)cc1 | 4.32 µM | > 16.7 | 2.56 µM | 5.17 | > 16.7 | > 16.7 | 1.8 | 9.82 | 4.95 | 11.3 | 4.17 | 11.8 | 4.9 µM | > 16.7 | 2.5 µM | 8.01 | 3.95 | 10.7 µM | 3.72 µM | 8.3
3 | CCN1C(=O)N(CC)C2C1NN=c1s/c(=C\c3cc4ccccc4[nH]3)c(=O)n12 (stereo unspecified) | 0.0241 µM | 14.6 | < 0.0112 µM | 14.8 | 0.0412 | 18.7 | < 0.0117 | < 0.0191 |  | 33.9 | 0.0108 | 0.0628 | < 0.0191 µM | 31.3 | < 0.0149 µM | 0.641 | 0.0388 | 36.9 µM | 0.0237 µM | > 100
4 | CCOC(=O)C1=C(Nc2cccc3ccccc23)OC/C1=N\NC(=O)c1ccccc1O |  | > 88 |  | > 100 |  | > 100 |  | 37.8 |  | > 100 |  | 70.6 |  | 67.8 |  | 39.5 |  | > 100 µM |  | > 100
5 | COc1cc(C(=O)/C=C/c2cccnc2Nc2ccccc2)cc(OC)c1OC | 1.21 µM | 2.55 | 1.87 µM | 3.78 | 0.657 | 1.88 | 1.52 | 4.98 | 1.66 | 3.4 | 1.42 | 2.75 | 1.27 µM | 3.49 | 1.13 µM | 2.34 | 1.92 | 3.84 µM | 1.5 µM | 2.92
6 | O=C(CCc1cc(-c2ccccc2)nc(=S)[nH]1)Nc1ccccc1[N+](=O)[O-] |  | > 100 |  | > 100 |  | > 100 |  | > 100 |  | > 100 |  | > 100 |  | > 100 |  | > 100 |  | > 100 µM |  | > 100
7 | COCCNc1cc(NC(=O)N2CCCc3cc(CN4CCN(C)CC4=O)c(C=O)nc32)ncc1C#N | > 50 µM | > 50 | > 50 µM | > 50 | > 50 | > 50 | > 50 | > 50 | 36.6 | > 50 | > 50 | > 50 | > 50 µM | > 50 | 16 µM | > 50 | > 50 | > 50 µM | > 50 µM | > 50
8 | S=C(Nc1cc(Cl)c(Cl)cc1Cl)SCc1ccccc1 |  | > 100 |  | 42.6 |  | 56 |  | 50.4 |  | > 100 |  | 82.5 |  | 51.5 |  | > 100 |  | 59.3 µM |  | > 100
9 | OCC1OC(n2cnc3c(=S)nc[nH]c32)C(O)C1O (stereo unspecified) | 34.3 µM | > 2500 | 3.49 µM | > 2500 | 1.48 | > 2500 | 3.82 | > 2210 | > 100 | > 2500 | 19.8 | > 2380 | 6.36 µM | > 2500 | 34.1 µM | > 2500 | > 30 | 2480 µM and > 100 µM | 1.15 µM | > 2500
10 | CC1CCC(C(C)C)C(O[C@@H]2OC(=O)C[C@@H]2Sc2ccccc2)C1 (stereo partly specified) |  | 32 |  | 54.6 |  | 96 |  | 43.6 |  | 34.9 |  | 74.7 |  | 45.3 |  | 98.3 |  | 58.7 µM |  | 59.3
11 | CC(C)(C#N)c1cc(C(=O)Nc2cc(Nc3ncccc3-c3ncnc4nc[nH]c34)ccc2F)cc(C(F)(F)F)c1 | 1.42 µM | > 10 |  | > 3.73 | 0.463 | > 10 | 0.526 | > 10 | 0.315 | > 2.08 | 0.126 | 0.844 |  | > 10 |  | > 10 | 0.0648 | 0.234 µM | 0.101 µM | 0.862
12 | FC(F)(F)c1ccc(-c2cnc(Cl)nc2NCc2cc(C(F)(F)F)cc(C(F)(F)F)c2)cc1 | 2.81 µM | > 100 | 2.66 µM | > 100 | 3.86 | > 100 | 2.6 | 6.73 | 2.35 | 5.28 | 1.97 | 6.87 | 3.48 µM | > 100 | 1.7 µM | > 100 | 2.84 | 7.56 µM | 4.44 µM | > 100
13 | O=C1c2ccccc2CC1C1(O)C(=O)Nc2ccccc21 (stereo unspecified) |  | > 100 |  | > 100 |  | > 100 |  | > 100 |  | > 100 |  | > 100 |  | > 100 |  | > 100 |  | > 100 µM |  | > 100
14 | Cc1ccc2c(c1)C(=O)c1c-2n(CCCBr)c(=O)c2cc([N+](=O)[O-])ccc12 | 46.4 µM | > 100 | 73.8 µM | > 100 | 24.4 | > 100 | 18.3 | > 100 | > 100 | > 100 | 51.7 | > 100 | > 100 µM | > 100 | 48.1 µM | > 100 | > 100 | > 100 µM | 45.8 µM | > 100
15 | CSC1(SC2=NCCN2)SC2(NCCN2)S1 |  | 41.4 |  | 67.6 |  | 34.4 |  | 55.9 |  | 39.4 |  | 27.9 |  | 43 |  | 32.2 |  | 34.3 µM |  | 44.3
16 | Nc1n[nH]c2ccc([C@@H]3Nc4ccc5[nH]ncc5c4[C@H]4C5C=CC(C5)[C@@H]34)cc12 (stereo partly specified) | 0.52 µM | 28.2 | 0.172 µM | 4.38 | 0.52 | 20.7 | 0.321 | 4.39 | 4.14 | 28 | 0.0876 | 0.492 | 0.563 µM | > 89.5 | 0.176 µM | 24.8 | 0.655 | 35.3 µM | 0.231 µM | 1.13
17 | CC(=O)O[C@H]1CC[C@@]2(C)[C@@H](CC[C@@H]3[C@@H]2CC[C@]2(C)C=C(C=O)C[C@@H]32)C1 | 3.42 µM | 10.6 | 17.4 µM | 36 | 10.5 | 23.1 | 2.2 | 5.87 | 7.53 | 23.1 | 94.6 | > 100 | 2.96 µM | 9.59 | 9.36 µM | 22.2 | 3.64 | 12.6 µM | 4.74 µM | 20.8
18 | CS/C(=N\c1nccs1)NC(=O)c1cccc(Cl)c1 |  | > 100 |  | > 100 |  | > 100 |  | > 100 |  | > 100 |  | > 100 |  | > 100 |  | > 100 |  | > 100 µM |  | > 100
19 | CN(C)CC1CCCCCC(CN(C)C)C1=O (stereo unspecified) | 7.9 µM | 22.8 | 19.7 µM | 47.2 | 13 | 27.3 | 2.24 | 8.57 | 3.82 | 13.4 | 15.1 | 29.6 | 2.61 µM | 8.54 | 12.2 µM | 27.5 | 2.19 | 5.01 µM | 1.19 µM | 11.9
20 | c1ccc(P(CCP(CCP(c2ccccc2)c2ccccc2)c2ccccc2)CCP(c2ccccc2)c2ccccc2)cc1 (stereo unspecified) | > 10 µM and 3.94 µM | > 10 | > 10 µM and 3.56 µM | > 10 |  | > 10 |  | 3.69 |  | > 10 |  | > 10 | > 10 µM and 1.87 µM | > 10 | 4.55 µM and 1.91 µM | > 10 |  | > 10 µM | > 10 µM and 4.18 µM | > 10
